How the values were obtained:
KG1 cells = assay: Induction of apoptosis in tumor cells (microscopy, flow cytometry); format: cell-based, human; details: for Speed of apoptosis induction: scored after 6, 12, 24, 48 and 72 hours
Method: Microscopy: Nuclear morphology of the cells was analyzed with the fluorochromes Hoechst 33342 (λEx max 346 nm; λEm max 460 nm) (Sigma) prepared in phosphate-buffered saline (PBS at 0.1 mg/ml, added to the culture medium at a final concentration of 2 μg/ml and ethidium homodimer (EB) (λEx max 540 nm; λEm max 625 nm) (Sigma) prepared in PBS at 100 μg/ml and added to the culture medium at a final concentration of 2 μg/ml (Lizard, 1995). Hundred cells were counted for each sample and percentage of apoptosis was determined.
TdT-mediated dUTP nick end labeling (TUNEL): Control and novel compound-treated cell cultures were washed with PBS and fixed in 1% buffered formaldehyde (pH 7.4) for 15 minutes on ice. After washing in PBS, cells were permeabilized in 70% cold (−20° C.) ethanol and transferred to 4° C. for at least 1 hour. After rehydratation in PBS, cells were labeled with 50 μl/well TUNEL reaction mixture (Boehringer Mannheim). Cells were incubated in this solution at 37° C. for 40 minutes, washed in PBS and resuspended in 500 μl PBS containing 5 μg/ml EB and 0.1% RNAse. After 30 minutes of incubation at 4° C., green (FITC-dUTP) and red (EB-DNA) fluorescence of individual cells was measured on a FACscan flow cytometer (Gorczyca, 1993). Negative control (fixed and permeabilized cells incubated with 50 μl label solution per well without terminal transferase, instead of TUNEL reaction mixture) and positive control (fixed and permeabilized cells incubated with DNase I (100 μg/ml) that induces DNA strand breaks) were included in each experimental set-up.
Viable, apoptotic, necrotic (=primary necrosis, not following apoptosis) and secondarily necrotic cells (=late apoptosis, evolving to necrosis) were scored differentially after 6, 12, 24, 48 and 72 hours of exposure to novel compounds. For the three products a different apoptosis-inducing pattern could be observed. Apoptosis induction occurs fast after incubation with 172 and 201 but slower after incubation with 98.
After 6 and 12 hours of incubation the apoptotic population seems mainly to evolve from S phase. […]

[1] = system: Cytokinin-dependent tobacco callus Nicotiana tabacum L. cv. Wisconsins 38; assay: Tobacco callus bioassay for cytotoxicity (herbicidal activity); format: cell-based
How it was run: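 Compounds were prepared in DMSO as a 10^−3 M stock in water. Growth inhibition was scored from fresh callus weight gain after four weeks, with five replicates and the test run at least twice.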

Substance: 5-(3-aminoethylamino)-7-(3,4-dihydroxybenzyl)amino-3-isopropylpyrazolo[4,3-d]pyrimidine [Compound 201]
- Incubation time after which apoptosis is detected (KG1 cells; flow cytometry, cell line not given): 6 h
- Speed of apoptosis induction (KG1 cells): fast

Substance: 5-(3-hydroxypropylamino)-7-[(R,S)-(1-phenyl-2-hydroxyethyl)amino-3-isopropylpyrazolo[4,3-d]pyrimidine [Compound 172]
- Speed of apoptosis induction (KG1 cells): fast

Substance: 5-(3-aminopropylamino)-7-benzylamino-3-isopropylpyrazolo[4,3-d]pyrimidine [Compound 17]
- Inhibition of tobacco callus growth [1]: inhibitory effect

Reference: patent US7745450B2, “Pyrazolo[4,3-d]pyrimidines, processes for their preparation and methods for therapy” (Institute of Experimental Botany, priority 2002, dated 2010)
